The values below come from patent publication US11547703B2, “Substituted fused heteroaromatic tricyclic compounds as kinase inhibitors and the use thereof” (IMPACT THERAPEUTICS (SHANGHAI), INC, priority 2017, dated 2023).

By IC50 is commonly meant the concentration that gives 50% inhibition. As usually defined, the inhibition is the relative decrease from the control value, in per cent. Read a low inhibition as little suppression.

One assay deals with ATM enzyme (human) (Homo sapiens, UniProt Q13315). As to the kind of experiment: ATM kinase assay (HTRF, phosphorylation of GST-cMyc-p53). Type of assay: biochemical. The settings on record: for inhibition(%) of ATM kinase / inhibition at 1 µM: detected concentration 1 μm. How it is done: ATM enzyme (human) was added to the reaction solution containing 30 nM GST-cMyc-p53 and 10 μM Mg/ATP, and then 50 times the concentration of the tested compound (or reference compound AZD0156) dissolved in 100% DMSO was added to the final concentration of 10 μM/1 μM/0.1 μM/0.01 μM. The reaction was initiated by the addition of a Mg/ATP mixture and incubation for 30 minutes at room temperature, the reaction was quenched by the addition of a stop solution containing EDTA. Finally, the detection buffer containing the d2-labeled anti-GST monoclonal antibody and the europium-labeled anti-phospho p53 (Ser15) antibody was added. The plate was then read in time resolved fluorescence mode and the homogeneous time resolved fluorescence (HTRF) signal was determined according to the equation: HTRF=10000×(Em665nm/Em620nm). Each compound sample was repeated in duplicate. The negative control contained all components except the ATM enzyme, and the positive control contained all components. All reactions were quenched by adding EDTA.
Sequence of ATM enzyme (human) (Q13315 whole entry): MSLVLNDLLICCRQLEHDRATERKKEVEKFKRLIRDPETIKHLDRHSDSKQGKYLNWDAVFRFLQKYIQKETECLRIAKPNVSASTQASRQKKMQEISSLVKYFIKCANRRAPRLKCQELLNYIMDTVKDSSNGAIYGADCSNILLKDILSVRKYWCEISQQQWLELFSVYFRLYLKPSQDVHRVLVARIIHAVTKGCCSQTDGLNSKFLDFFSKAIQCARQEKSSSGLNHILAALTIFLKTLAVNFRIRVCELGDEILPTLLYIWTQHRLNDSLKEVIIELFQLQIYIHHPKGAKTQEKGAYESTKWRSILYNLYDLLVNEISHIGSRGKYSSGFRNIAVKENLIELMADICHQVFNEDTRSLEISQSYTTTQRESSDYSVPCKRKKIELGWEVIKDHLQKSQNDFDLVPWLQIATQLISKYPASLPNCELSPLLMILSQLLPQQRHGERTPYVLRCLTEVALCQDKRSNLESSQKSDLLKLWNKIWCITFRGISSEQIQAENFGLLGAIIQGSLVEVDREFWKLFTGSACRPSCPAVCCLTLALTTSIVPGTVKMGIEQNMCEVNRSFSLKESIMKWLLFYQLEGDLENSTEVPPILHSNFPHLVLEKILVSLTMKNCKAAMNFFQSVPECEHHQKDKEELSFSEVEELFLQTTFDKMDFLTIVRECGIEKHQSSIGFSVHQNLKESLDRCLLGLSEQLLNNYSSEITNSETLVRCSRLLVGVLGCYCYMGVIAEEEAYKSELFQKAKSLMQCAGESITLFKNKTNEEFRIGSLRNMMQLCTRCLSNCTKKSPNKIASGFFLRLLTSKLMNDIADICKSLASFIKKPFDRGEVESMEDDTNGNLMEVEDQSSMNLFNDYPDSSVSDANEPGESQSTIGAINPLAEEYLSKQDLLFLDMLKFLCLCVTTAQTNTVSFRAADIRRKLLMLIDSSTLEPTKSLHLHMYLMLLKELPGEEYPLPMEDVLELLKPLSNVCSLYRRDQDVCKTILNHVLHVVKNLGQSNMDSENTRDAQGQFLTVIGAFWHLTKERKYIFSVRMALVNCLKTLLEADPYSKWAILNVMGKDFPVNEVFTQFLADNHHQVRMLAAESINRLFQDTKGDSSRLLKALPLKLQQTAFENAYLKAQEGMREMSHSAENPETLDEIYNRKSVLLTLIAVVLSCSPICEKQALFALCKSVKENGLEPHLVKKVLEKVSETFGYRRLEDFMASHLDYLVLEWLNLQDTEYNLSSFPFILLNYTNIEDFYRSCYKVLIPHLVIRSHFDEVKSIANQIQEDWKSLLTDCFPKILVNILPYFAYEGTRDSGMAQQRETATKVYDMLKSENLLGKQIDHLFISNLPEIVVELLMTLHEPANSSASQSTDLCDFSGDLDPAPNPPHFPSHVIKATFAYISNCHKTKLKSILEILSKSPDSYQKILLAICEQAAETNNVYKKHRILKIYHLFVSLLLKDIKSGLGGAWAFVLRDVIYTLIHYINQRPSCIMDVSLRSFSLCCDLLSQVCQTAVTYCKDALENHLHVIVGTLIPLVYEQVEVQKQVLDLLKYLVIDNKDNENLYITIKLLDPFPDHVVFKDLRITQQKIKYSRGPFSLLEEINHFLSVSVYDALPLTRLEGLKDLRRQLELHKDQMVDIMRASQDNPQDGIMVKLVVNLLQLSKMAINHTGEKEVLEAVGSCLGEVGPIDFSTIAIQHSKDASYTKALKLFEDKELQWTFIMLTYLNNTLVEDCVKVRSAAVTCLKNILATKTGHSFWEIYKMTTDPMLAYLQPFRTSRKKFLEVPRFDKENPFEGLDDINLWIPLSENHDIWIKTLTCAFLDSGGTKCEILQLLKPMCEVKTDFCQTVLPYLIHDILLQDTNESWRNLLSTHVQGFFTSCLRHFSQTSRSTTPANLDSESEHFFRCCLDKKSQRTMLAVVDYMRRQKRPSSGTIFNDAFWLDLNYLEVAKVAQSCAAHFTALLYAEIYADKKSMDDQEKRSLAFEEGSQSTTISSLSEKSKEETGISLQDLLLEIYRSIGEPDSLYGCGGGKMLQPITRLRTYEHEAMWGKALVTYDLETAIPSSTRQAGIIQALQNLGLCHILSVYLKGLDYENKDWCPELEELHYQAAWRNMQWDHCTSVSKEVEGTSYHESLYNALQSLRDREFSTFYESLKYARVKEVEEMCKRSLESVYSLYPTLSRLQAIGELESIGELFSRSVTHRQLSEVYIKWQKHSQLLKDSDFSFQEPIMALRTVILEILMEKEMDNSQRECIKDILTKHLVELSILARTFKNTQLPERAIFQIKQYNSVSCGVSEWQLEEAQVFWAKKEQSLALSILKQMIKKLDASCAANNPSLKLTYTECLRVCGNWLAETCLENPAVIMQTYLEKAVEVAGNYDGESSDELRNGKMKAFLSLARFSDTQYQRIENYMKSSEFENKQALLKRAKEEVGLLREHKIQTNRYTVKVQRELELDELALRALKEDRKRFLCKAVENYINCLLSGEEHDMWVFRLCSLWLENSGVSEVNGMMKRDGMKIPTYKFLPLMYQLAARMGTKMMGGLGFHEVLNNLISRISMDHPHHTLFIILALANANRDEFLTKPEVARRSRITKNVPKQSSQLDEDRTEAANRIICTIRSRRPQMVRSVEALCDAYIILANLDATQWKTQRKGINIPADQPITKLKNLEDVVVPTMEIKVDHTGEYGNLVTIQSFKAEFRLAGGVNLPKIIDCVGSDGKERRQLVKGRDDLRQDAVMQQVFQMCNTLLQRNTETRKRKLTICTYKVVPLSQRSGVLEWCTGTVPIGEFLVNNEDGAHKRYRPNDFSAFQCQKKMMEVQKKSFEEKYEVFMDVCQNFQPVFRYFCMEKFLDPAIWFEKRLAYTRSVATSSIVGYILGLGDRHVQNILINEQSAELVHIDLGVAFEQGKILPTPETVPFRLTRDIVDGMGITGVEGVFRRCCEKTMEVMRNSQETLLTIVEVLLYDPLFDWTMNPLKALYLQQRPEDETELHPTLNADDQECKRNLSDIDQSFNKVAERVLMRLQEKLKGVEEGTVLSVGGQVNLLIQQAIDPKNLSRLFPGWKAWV
The compounds were serially diluted to 10 concentrations with 100% DMSO at the ratio of 1:3 and 1:10 (the last concentration was negative control of DMSO), then added to the ATM buffer and diluted to a final concentration of 10, 3, 1, 0.3, 0.1, 0.03, 0.01, 0.003, 0.001 and 0 μM, respectively. ATM kinase inhibition was detected by using the method described above. The curve equation for calculating IC50 value is as follows: […]
wherein, C is the concentration of compound and D is the slope factor. Table 2 summarizes the IC50 values of compounds inhibiting ATM kinase.

Assay [1] concerns human colon cancer cell SW620. In words: MTT assay, growth of SW620 cells, compounds combined with CPT-11. The following applies: 205 nM CPT-11, 5 days, MTT. Type of assay: cell-based. How it is done:
(§1) SW620 cells were digested by trypsinase, centrifuged at 800 rpm for 5 minutes, the supernatant was discarded, resuspended with fresh medium (RPMI 1640 medium+10% FBS) and counted. The cells were seeded into 96-well cell culture plate with appropriate cell density and incubated overnight in a 37° C. 5% CO2 incubator. The stock solutions of the tested compound and the reference compound AZD0156 were serially diluted to 8 concentrations by DMSO at the ratios of 1:3 and 1:10, respectively, and the last concentration was negative control of DMSO (0 μM, the final concentration of DMSO was 1%). 5 μL of each concentration was added to 120 μL of medium (25 times diluted) and mixed by shaking. The overnight cells were taken and the culture medium was removed, 195 μL of fresh medium containing 205 nM CPT-11 was added to each well, and 5 μL of diluted medium containing the corresponding concentration of the tested sample was added respectively, and the culture plate was then placed in the 5% CO2 cell culture incubator at 37° C. for 5 days. After removing the original solution, 100 μL of fresh serum-free DMEM medium containing MTT (0.5 mg/mL) was added to each well, the culture was continued. After 4 hours, the original solution was removed, 100 μL of DMSO was added into each well, the 96-well plates were shaken away from light for 10 minutes and placed in a multi-function reader to read the absorbance at the wavelength of 552/630/690 nm. GraphPad Prism 6.0 was used to analyze the data. The inhibitory activity of compounds on cell proliferation was plotted based on cell viability and compound concentration. The IC50 value was fitted by a sigmoidal dose response curve equation Y=100/(1+10^(Log C−Log IC50)), where C was the concentration of compound.
For orientation: Tetrazolium assays rely on reduction of a dye to a coloured formazan, in cell work by metabolically active cells.

For assay [2], the system named is human breast cancer cell MDA-MB-468. In words: MTT assay, growth of MDA-MB-468 cells. Type of assay: cell-based. The following applies: single agent, 7 days, MTT. As for the experimental part: as §1, with “MDA-MB-468 cells” for “SW620 cells”, “1:10, respectively:” for “1:10, respectively, and”, “medium (PRMI 1640+5% FBS)” for “medium containing 205 nM CPT-11”, “for 7 days (On the fourth day, the medium containing drugs was removed and fresh medium containing drugs was added for continuous cultivation).” for “for 5 days.”

[3] abbreviates: Homo sapiens, MDA-MB-468, 168 h.

Regarding `CN(C)CCCOc1ccc(-c2ccc3ncc4c(c3c2)n(C2CCOCC2)c(=O)n4C)cn1` [AZD0156, reference compound], the “inhibition(%) of ATM kinase” value on ATM enzyme (human) is 100%. Besides, the IC50 in assay [1] worked out at 8.5 nM; in assay [2] it was 10.6 nM.
`CN(C)CCCOc1ccc(-c2ccc3nc4cccc(C5=CCOCC5)c4n3c2)cc1` [Example 2, N,N-dimethyl-3-(4-(9-(3,6-dihydro-2H-pyran-4-yl)benzo[4,5]imidazo[1,2-a]pyridin-2-yl)phenoxy)propan-1-amine] had an inhibition at 1 µM on ATM enzyme (human) (0.5 h) of 81%. In assay [1] (Homo sapiens, SW-620, 120 h), the half-inhibitory concentration (IC50) was 1660 nM.
As for `CN(C)CCCOc1ccc(-c2ccc3nc4cccc(N5CCN(C)CC5)c4n3c2)cc1` [Example 3, N,N-dimethyl-3-(4-(9-(4-methylpiperazin-1-yl)benzo[4,5]imidazo[1,2-a]pyridin-2-yl)phenoxy)propan-1-amine], the IC50 in assay [1] (Homo sapiens, SW-620, 120 h) amounted to 563 nM; in assay [2] (setting [3]), 330 nM.
In the case of `CN(C)CCCOc1ccc(-c2ccc3nc4cccc(N5CCOCC5)c4n3c2)cc1` [Example 4, N,N-dimethyl-3-(4-(9-morpholinobenzo[4,5]imidazo[1,2-a]pyridin-2-yl)phenoxy)propan-1-amine], the inhibition at 1 µM on ATM enzyme (human) (0.5 h) was 74%. Also, the IC50 in assay [1] (Homo sapiens, SW-620, 120 h) amounted to 5480 nM.
In turn, `CN(C)CCCOc1ccc(-c2ccc3nc4cccc(N5CCCCC5)c4n3c2)cn1` [Example 5, N,N-dimethyl-3-((5-(9-(piperidin-1-yl)benzo[4,5]imidazo[1,2-a]pyridin-2-yl)pyridin-2-yl)oxy)propan-1-amine] registered an inhibition at 1 µM against ATM enzyme (human) (0.5 h) of 61%. The IC50 in assay [1] (Homo sapiens, SW-620, 120 h) was over 10000 nM.
In the same order, the values of `CN(C)CCCOc1ccc(-c2ccc3nc4cccc(N5CCOCC5)c4n3c2)cn1` [Example 6, N,N-dimethyl-3-((5-(9-morpholinobenzo[4,5]imidazo[1,2-a]pyridin-2-yl)pyridin-2-yl)oxy)propan-1-amine] are 77% and 2470 nM.
For `CN(C)CCCOc1ccc(-c2ccc3nc4cccc(N5CCN(C)CC5)c4n3c2)cn1` [Example 7, N,N-dimethyl-3-((5-(9-(4-methylpiperazin-1-yl)benzo[4,5]imidazo[1,2-a]pyridin-2-yl)pyridin-2-yl)oxy)propan-1-amine], at 1 µM the inhibition against ATM enzyme (human) (0.5 h) was 64%. Also, the IC50 in assay [1] (Homo sapiens, SW-620, 120 h) was over 10000 nM.
Consider `CN(C)CCCOc1ccc(-c2ccc3nc4cccc(CN5CCN(C)CC5)c4n3c2)cn1` [Example 11], for which the “inhibition(%) of ATM kinase” value against ATM enzyme (human) was 63%. The IC50 in assay [1] is 1040 nM.
On to `CN(C)CCCOc1ccc(-c2ccc3nc4cccc(OC5CCOCC5)c4n3c2)cn1` [Example 13, N,N-dimethyl-3-((5-(9-((tetrahydro-2H-pyran-4-yl)oxy)benzo[4,5]imidazo[1,2-a]pyridin-2-yl)pyridin-2-yl)oxy)propan-1-amine], for which testing at 1 µM at ATM enzyme (human) (0.5 h) gave an inhibition of 86%. For the same molecule, the IC50 in assay [1] (Homo sapiens, SW-620, 120 h) was found to be 1570 nM.
On to `CN(C)CCCOc1ccc(-c2ccc3nc4cccc(NC5CCOCC5)c4n3c2)cn1` [Example 14, N,N-dimethyl-3-((5-(9-(tetrahydro-2H-pyran-4-ylamino)benzo[4,5]imidazo[1,2-a]pyridin-2-yl)pyridin-2-yl)oxy)propan-1-amine], for which testing at 1 µM against ATM enzyme (human) (0.5 h) gave an inhibition of 48%. Besides, the IC50 in assay [1] (Homo sapiens, SW-620, 120 h) is over 10000 nM.
Molecule `CN(C)C1CCN(c2ccc(-c3ccc4nc5cccc(C6=CCOCC6)c5n4c3)cc2)CC1` [Example 39, N,N-dimethyl-1-(4-(9-(3,6-dihydro-2H-pyran-4-yl)benzo[4,5]imidazo[1,2-a]pyridin-2-yl)phenyl)piperidin-4-amine] yielded an inhibition at 0.01 µM against ATM enzyme (human) (0.5 h, detected concentration 0.01 μm) of 17%. Also, 0.1 µM produced 62% inhibition at ATM enzyme (human) (0.5 h, detected concentration 0.1 μm). Also, on ATM enzyme (human) (0.5 h), 1 µM produced 91% inhibition. In addition, the IC50 in assay [1] (Homo sapiens, SW-620, 120 h) was 1510 nM.
In turn, `CN(C)C1CCN(c2ccc(-c3ccc4nc5cccc(C6=CCOCC6)c5n4c3)cn2)CC1` [Example 40, N,N-dimethyl-1-(5-(9-(3,6-dihydro-2H-pyran-4-yl)benzo[4,5]imidazo[1,2-a]pyridin-2-yl)pyridin-2-yl)piperidin-4-amine] registered an inhibition at 1 µM against ATM enzyme (human) (0.5 h) of 96%. Moreover, the IC50 in assay [1] (Homo sapiens, SW-620, 120 h) came out at 2370 nM.
The matching figures for `CN(C)C1CCN(c2ccc(-c3ccc4nc5cccc(N6CCOCC6)c5n4c3)cc2)CC1` [Example 41, N,N-dimethyl-1-(4-(9-morpholinobenzo[4,5]imidazo[1,2-a]pyridin-2-yl)phenyl)piperidin-4-amine]: 82% and 3480 nM.
With `C[C@@H]1CN(c2cccc3nc4ccc(-c5ccc(OCCCN(C)C)c(F)c5)cn4c23)C[C@H](C)N1C` [Example 50, N,N-dimethyl-3-(2-fluoro-4-(9-((3S,5R)-3,4,5-trimethylpiperazin-1-yl)benzo[4,5]imidazo[1,2-a]pyridin-2-yl)phenoxy)propan-1-amine], the IC50 is over 1000 nM in assay [1] (Homo sapiens, SW-620, 120 h) and over 1000 nM in assay [2] (setting [3]).
For `C[C@@H]1CN(c2cccc3nc4ccc(-c5ccc(OCCCN(C)C)c(C(F)(F)F)c5)cn4c23)C[C@H](C)N1C` [Example 53, N,N-dimethyl-3-(2-(trifluoromethyl)-4-(9-((3S,5R)-3,4,5-trimethylpiperazin-1-yl)benzo[4,5]imidazo[1,2-a]pyridin-2-yl)phenoxy)propan-1-amine], 1 µM produced 100% inhibition at ATM enzyme (human) (0.5 h). Also, in assay [1] (Homo sapiens, SW-620, 120 h), the IC50 came out at 162 nM.
On to `C[C@@H]1CN(c2ncnc3nc4ccc(-c5ccc(N6CCC(N(C)C)CC6)cc5)nn4c23)C[C@H](C)N1C` [Example 71, N,N-dimethyl-1-(4-(4-((3 S,5R)-3,4,5-trimethylpiperazin-1-yl)pyridazino[6,1-f]purin-7-yl)phenyl)piperidin-4-amine], for which the IC50 in assay [1] (Homo sapiens, SW-620, 120 h) is 1240 nM; in assay [2] (setting [3]), 1800 nM.
Consider “N,N-dimethyl-1-(2-(trifluoromethyl)-4-(942S,6R)-2,6-dimethylmorpholino)benzo[4,5]imidazo[1,2-a]pyridin-2-yl)phenyl)piperidin-4-amine [Example 54]”, for which the IC50 worked out at 193 nM in assay [1] and 220 nM in assay [2].
The matching figures for “N,N-dimethyl-3-(2-(trifluoromethyl)-4-(942S,6R)-2,6-dimethylmorpholino)benzo[4,5]imidazo[1,2-a]pyridin-2-yl)phenoxy)propan-1-amine [Example 55]”: 228 nM and 255 nM.
